Measurements: ChEMBL document CHEMBL3351449, “Inhibition of FAAH, TRPV1, and COX2 by NSAID-serotonin conjugates” (Bioorg Med Chem Lett, 2014)
Activity calls are given as the source filed them. The calls are words filed in the database; no cut-off is given here.

What was measured:
[1] = target: T1, Fatty-acid amide hydrolase 1 (Homo sapiens) (UniProt O00519); experiment: Inhibition of human recombinant FAAH using AMC arachidonoyl amide as substrate assessed as residual activity at 10 uM by fluorescence assay
T1 sequence (whole entry): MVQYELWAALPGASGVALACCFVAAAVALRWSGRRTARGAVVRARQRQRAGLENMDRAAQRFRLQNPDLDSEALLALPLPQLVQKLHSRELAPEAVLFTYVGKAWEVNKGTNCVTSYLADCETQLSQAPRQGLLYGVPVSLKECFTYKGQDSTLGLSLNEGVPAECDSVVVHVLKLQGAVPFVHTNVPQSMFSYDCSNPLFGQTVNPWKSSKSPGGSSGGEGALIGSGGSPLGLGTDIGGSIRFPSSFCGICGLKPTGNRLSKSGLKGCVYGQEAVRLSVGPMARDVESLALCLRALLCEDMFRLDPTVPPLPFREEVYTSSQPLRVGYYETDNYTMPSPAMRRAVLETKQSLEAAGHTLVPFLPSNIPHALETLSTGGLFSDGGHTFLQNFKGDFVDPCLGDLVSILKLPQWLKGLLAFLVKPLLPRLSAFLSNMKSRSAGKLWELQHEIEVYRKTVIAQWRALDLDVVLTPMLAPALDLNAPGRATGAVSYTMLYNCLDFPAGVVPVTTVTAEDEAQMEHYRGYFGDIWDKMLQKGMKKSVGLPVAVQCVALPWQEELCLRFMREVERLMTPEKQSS

[2] = target: T2, Prostaglandin G/H synthase 2 (Homo sapiens) (UniProt P35354); experiment: Inhibition of human recombinant COX2 assessed as inhibition of ADHP to fluorescent resorufin conversion measured as residual activity at 10 uM by fluorescence assay
T2 sequence (whole entry): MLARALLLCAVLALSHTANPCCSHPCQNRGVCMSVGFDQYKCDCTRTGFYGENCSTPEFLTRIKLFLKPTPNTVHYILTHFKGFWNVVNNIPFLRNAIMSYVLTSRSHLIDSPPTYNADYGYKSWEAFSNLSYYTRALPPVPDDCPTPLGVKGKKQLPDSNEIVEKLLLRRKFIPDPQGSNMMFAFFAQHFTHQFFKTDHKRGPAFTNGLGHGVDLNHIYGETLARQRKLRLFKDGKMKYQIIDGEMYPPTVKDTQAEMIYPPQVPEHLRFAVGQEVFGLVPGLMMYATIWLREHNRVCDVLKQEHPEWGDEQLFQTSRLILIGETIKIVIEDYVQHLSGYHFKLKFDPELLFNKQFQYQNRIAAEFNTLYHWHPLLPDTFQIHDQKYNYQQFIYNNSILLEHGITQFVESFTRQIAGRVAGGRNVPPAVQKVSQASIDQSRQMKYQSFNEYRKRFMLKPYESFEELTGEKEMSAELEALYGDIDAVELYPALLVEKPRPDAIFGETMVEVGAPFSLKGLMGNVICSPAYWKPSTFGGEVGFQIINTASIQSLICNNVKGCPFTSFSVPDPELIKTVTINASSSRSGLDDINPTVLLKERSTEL

[3] = target: T3, Transient receptor potential cation channel subfamily V member 1 (Homo sapiens, UniProt Q8NER1); experiment: Inhibition of human TRPV1 overexpressed in BEAS-2B cells assessed as calcium flux after 30 mins by Fluo-4 AM fluorescence assay; format: cell-based
[4] = target: T3, Transient receptor potential cation channel subfamily V member 1; experiment: Inhibition of human TRPV1 overexpressed in BEAS-2B cells at 10 uM after 30 mins by Fluo-4 AM fluorescence assay; format: cell-based
[5] = target: T3, Transient receptor potential cation channel subfamily V member 1; experiment: Stimulation of human TRPV1 overexpressed in BEAS-2B cells at >10 uM after 30 mins by Fluo-4 AM fluorescence assay; format: cell-based
[6] = target: T3, Transient receptor potential cation channel subfamily V member 1; experiment: Inhibition of human TRPV1 overexpressed in BEAS-2B cells assessed as residual activity at 250 uM after 30 mins by Fluo-4 AM fluorescence assay; format: cell-based
[7] = target: T3, Transient receptor potential cation channel subfamily V member 1; experiment: Inhibition of human TRPV1 overexpressed in BEAS-2B cells assessed as residual activity at 50 uM after 30 mins by Fluo-4 AM fluorescence assay; format: cell-based
[8] = target: T4, Prostaglandin G/H synthase 2 (Homo sapiens, UniProt P35354); experiment: Inhibition of human recombinant COX2 assessed as inhibition of ADHP to fluorescent resorufin conversion by fluorescence assay
T4 sequence (P35354 whole entry): T2 sequence (whole entry)

[9] = target: T5, Fatty-acid amide hydrolase 1 (Homo sapiens, UniProt O00519); experiment: Inhibition of human recombinant FAAH using AMC arachidonoyl amide as substrate by fluorescence assay
T5 sequence (O00519 whole entry): T1 sequence (whole entry)

[10] = target: T1, Fatty-acid amide hydrolase 1 (Homo sapiens); experiment: Inhibition of human recombinant FAAH using AMC arachidonoyl amide as substrate assessed as residual activity at 50 uM by fluorescence assay

T3 sequence (Q8NER1 whole entry): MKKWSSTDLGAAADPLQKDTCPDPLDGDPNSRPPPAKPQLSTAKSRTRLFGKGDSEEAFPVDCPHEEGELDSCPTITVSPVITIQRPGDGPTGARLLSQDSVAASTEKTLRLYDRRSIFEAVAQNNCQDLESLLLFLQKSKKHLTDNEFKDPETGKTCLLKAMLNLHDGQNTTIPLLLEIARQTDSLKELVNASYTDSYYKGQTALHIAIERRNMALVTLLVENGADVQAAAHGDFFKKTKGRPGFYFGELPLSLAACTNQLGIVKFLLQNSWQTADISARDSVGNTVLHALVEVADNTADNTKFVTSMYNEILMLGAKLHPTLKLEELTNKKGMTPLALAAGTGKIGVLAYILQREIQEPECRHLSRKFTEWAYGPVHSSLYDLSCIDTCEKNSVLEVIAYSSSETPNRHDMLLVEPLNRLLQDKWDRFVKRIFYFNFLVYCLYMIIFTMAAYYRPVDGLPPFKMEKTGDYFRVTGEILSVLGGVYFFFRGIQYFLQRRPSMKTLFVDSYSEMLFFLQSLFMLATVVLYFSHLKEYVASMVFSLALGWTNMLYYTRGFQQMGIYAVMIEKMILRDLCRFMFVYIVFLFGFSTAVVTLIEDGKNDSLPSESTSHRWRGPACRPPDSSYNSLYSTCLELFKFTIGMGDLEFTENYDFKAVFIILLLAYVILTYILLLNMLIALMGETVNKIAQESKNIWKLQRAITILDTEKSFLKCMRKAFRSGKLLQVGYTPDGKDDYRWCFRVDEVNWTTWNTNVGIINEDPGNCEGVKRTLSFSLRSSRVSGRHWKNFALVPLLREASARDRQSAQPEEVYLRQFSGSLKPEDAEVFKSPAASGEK

| Structure (SMILES) | Activity [1] [%] | Activity [2] [%] | IC50 [3] [µM] | Activity [6] [%] | Activity [7] [%] | further results |
| --- | --- | --- | --- | --- | --- | --- |
| O=C(NCCc1c[nH]c2ccc(O)cc12)c1ccccc1Nc1cccc(C(F)(F)F)c1 | 107 | 38 | 10 |  |  | inhibition [4]: 40%; Activity [5]: Active |
| COc1ccc2cc([C@H](C)C(=O)O)ccc2c1 |  |  |  | 109 | 107 |  |
| O=C(c1ccccc1)c1ccc2n1CCC2C(=O)NCCc1c[nH]c2ccc(O)cc12 (stereo unspecified) | 98 | 43 | 70 |  |  |  |
| CC(C)Cc1ccc(C(C)C(=O)NCCc2c[nH]c3ccc(O)cc23)cc1 (stereo unspecified) | 75 | 42 | 6 |  |  | IC50 [8]: 10 µM; IC50 [9]: 5 µM |
| CC(C(=O)NCCc1c[nH]c2ccc(O)cc12)c1ccc(-c2ccccc2)c(F)c1 (stereo unspecified) | 85 | 38 | 9 |  |  | IC50 [8]: 8 µM; IC50 [9]: 15 µM |
| O=C(Cc1ccccc1Nc1c(Cl)cccc1Cl)NCCc1c[nH]c2ccc(O)cc12 | 98 | 43 | 19 |  |  |  |
| CC(C)Cc1ccc(C(C)C(=O)O)cc1 (stereo unspecified) |  |  |  | 112 | 103 |  |
| CC(C(=O)NCCc1c[nH]c2ccc(O)cc12)c1cccc(Oc2ccccc2)c1 (stereo unspecified) |  | 49 | 8 |  |  | IC50 [8]: 7 µM; Activity [10]: 105% |
| CCCCC/C=C\C/C=C\C/C=C\C/C=C\CCCC(=O)NCCc1c[nH]c2ccc(O)cc12 | 78 | 66 | 10 |  |  | IC50 [8]: 5 µM; IC50 [9]: 16 µM |
| O=C(NCCc1c[nH]c2ccc(O)cc12)c1ccccc1O | 101 | 51 | 70 |  |  |  |
| CC(C(=O)NCCc1c[nH]c2ccc(O)cc12)c1cccc(C(=O)c2ccccc2)c1 (stereo unspecified) | 88 | 51 | 45 |  |  |  |
| O=C(O)Cc1ccccc1Nc1c(Cl)cccc1Cl |  |  |  | 49 | 61 |  |
| COc1ccc2cc([C@H](C)C(=O)NCCc3c[nH]c4ccc(O)cc34)ccc2c1 |  | 48 | 13 |  |  | IC50 [8]: 18 µM; Activity [10]: 73% |
| COc1ccc2c(c1)c(CC(=O)O)c(C)n2C(=O)c1ccc(Cl)cc1 |  |  |  | 82 | 98 |  |
| O=C(c1ccccc1)c1ccc2n1CCC2C(=O)O (stereo unspecified) |  |  |  | 110 | 96 |  |
| O=C(O)c1ccccc1Nc1cccc(C(F)(F)F)c1 |  |  |  | 36 | 66 |  |
| CC(C(=O)O)c1cccc(Oc2ccccc2)c1 (stereo unspecified) |  |  |  | 121 | 104 |  |
| CC(=O)Oc1ccccc1C(=O)O |  |  |  | 91 | 84 |  |
| CC(=O)Oc1ccccc1C(=O)NCCc1c[nH]c2ccc(O)cc12 | 99 | 60 | 203 |  |  |  |
| CC(C(=O)O)c1cccc(C(=O)c2ccccc2)c1 (stereo unspecified) |  |  |  | 108 | 103 |  |
| CC(C(=O)O)c1ccc(-c2ccccc2)c(F)c1 (stereo unspecified) |  |  |  | 108 | 103 |  |
| COc1ccc2c(c1)c(CC(=O)NCCc1c[nH]c3ccc(O)cc13)c(C)n2C(=O)c1ccc(Cl)cc1 | 94 | 7 | 48 |  |  |  |
